The values that follow come from patent US9365534B2, “Arylated camphenes, processes for their preparation and uses thereof” (Yissum Research Development Company of the Hebrew …, priority 2009, dated 2016).

Like-named read-outs stand apart in the source and are kept apart here.

For orientation: Ki means the equilibrium dissociation constant of an inhibitor or competing ligand from its target. In general, IC50 refers to the concentration needed to halve the response being measured. As usually defined, the Emax is the maximal effect, on the per cent scale that the assay sets. As usually defined, the EC50 is the concentration at which the effect is half-maximal. A higher EC50 goes with a need for much substance.

The target of test [1] is T1, human CB2 receptor (Homo sapiens (Human), UniProt P34972). In words: Membrane competition binding assay with [3H]-CP 55,940, CHO-CB2 membranes. An excerpt:
(§1) The cDNA clones for human HA-tagged CB1 and CB2 receptors were obtained from the Missouri S&T cDNA Resource Center (www.cdna.org) in cloning vector pcDNA3.1+. The vector containing the human CB2 receptor was transfected directly into CHO-KI cells obtained from ATCC. The HA-tagged human CB1 receptor sequence was subcloned into the pef4-V5-HisA vector with Kpn1 and Pme1 restriction enzymes and subsequently transfected into CHO-K1 cells. Cells were clonally isolated by limited dilution and screened by immunocytochemistry for expression of the HA tag.
(§2) Cells were maintained in DMEM/F12 media supplemented with 10% fetal bovine serum (FBS), 100 units/ml penicillin and 100 μg/ml streptomycin and 2 mM L-glutamine. Transfected cell lines were maintained with additional 150 ug/ml zeocin for pEF HA-CB1 transfected cells and 500 ug/ml G-418 for pcDNA HA-CB2 transfected cells (all reagents obtained from Invitrogen).
(§3) Cells were grown to confluence and harvested in ice cold phosphate buffered saline with 5 mM EDTA. Cells were spun at 200×g for 10 min and frozen at −80° C. until required. Cell pellets were thawed with cold 0.32 M sucrose and homogenised with a glass homogeniser. The homogenate was spun at 1000×g for 10 min at 4° C. and the supernatant spun in a Sorvall ultracentrifuge for 30 min at 100,000×g. The pellet was then washed in ice cold water and re-spun twice more. The final pellet was resuspended in 50 mM Tris pH 7.5, 0.5 mM EDTA. Protein concentration was determined using the Dc protein assay kit (BioRad, Hercules, Calif., USA).
(§4) Membranes (5-10 μg) were incubated with radioligand and a range of concentrations of test compounds in binding buffer (50 mM Tris pH 7.4, 5 mM MgCl2, 1 mM EDTA) with 0.5% (w/v) bovine serum albumin (BSA) (ICP Bio, New Zealand), at 30° C. for 60 min. Stock solutions of putative cannabinoid ligands were prepared in dimethyl sulfoxide to a concentration of 10 mM. Six different final concentrations of compounds were used ranging from 50 μM to 0.1 nM. […] Assays were terminated by addition of 2 ml ice cold binding buffer and filtration through GF/C filters (Whatman) pre-soaked in cold binding buffer, followed by two washes in the same buffer.
(§5) Radioactivity was determined by incubation of filters with Irgasafe scintillation fluid (PerkinElmer) and scintillation counting in a Wallac Trilux using Microbeta Trilux software. Data was analysed using the Prism 4.02 programme (GraphPad Software, San Deigo, Calif., USA).
(§6) All data was analyzed using Prism 4.02. For binding data the Ki was determined from IC50 values derived from competition binding data fitted with one site competition non-linear regression analysis by Prism 4.02 using the Kd values reported above.

Test [2] deals with T2, human CB1 receptor (Homo sapiens (Human), UniProt P21554). Put plainly: Membrane competition binding assay with [3H]-CP 55,940, CHO-CB1 membranes.
From the text: as §1, §2, §3, §4, §5, §6

The target in test [3] is T2, human CB1 receptor. In words: cell-based.
From the text: as §1, §2
(§7) Cells were seeded at a density of 10,000 cells per well in poly-L-lysine treated 96-well culture plates (BD Biosciences). The following day wells were incubated with 40 μl DMEM/F12 containing 0.5% (w/v) BSA and 0.5 mM 3-isobutyl-1-methylxanthine (Sigma-Aldrich) for 30 minutes prior to 15 min stimulation with 50 μM forskolin (Tocris Cookson) and varying concentrations of indicated compounds at 37° C., 5% CO2. Assays were stopped by removal of media and addition of 100% ice cold ethanol. Plates were then frozen for a minimum of two hours before complete evaporation of ethanol. The well contents were then reconstituted in 50 μl cAMP assay buffer (20 mM HEPES pH 7.5 and 5 mM EDTA). Half of the reconstituted sample was transferred to round bottom 96-well plates (Greiner Bio-One GmbH) with 50 μl 0.01% w/v PKA (cAMP dependent protein kinase (Sigma-Aldrich) in 1 mM Na citrate pH 6.5 with 2 mM dithiothreitol) and 25 μl [^3H]-cAMP (at 22 nM in cAMP assay buffer) (GE Healthcare, Life Sciences). This was allowed to equilibrate for 3-18 hours. Following this a charcoal slurry (5% (w/v) activated charcoal and 0.2% (w/v) BSA in cAMP assay buffer) was added to the samples and the plates centrifuged at 3000×g, 4° C. for 5 min. Radioactive counts within the supernatant were then determined as described for competition binding assays.
(§8) pIC50 values were determined from cAMP assays by fitting a sigmoidal concentration response curve using Prism 4.02.

In test [4] the target is T1, human CB2 receptor. In words: cell-based.
From the text: as §1, §2, §7, §8

Test [5] has as its target T1, human CB2 receptor. In words: Membrane [35S]GTPγS binding assay. The following applies: for Emax: read-out: [35S]GTPγS Emax. The format is biochemical. Here is the method: Human CB2 expressing CHO-K1 membranes (5 μg per incubation mixture) were diluted in 50 mM Tris-HCl (pH 7.5) and 0.5 mM EDTA and added to HU compounds in a pre-mixed incubation cocktail. Final incubation concentrations were 55 mM Tris-HCl (pH 7.4), 1 mM EDTA, 100 mM NaCl, 5 mM MgCl2, 0.5% BSA, 50 μM GDP, 0.2 nM [^35S]GTPγS (PerkinElmer) with varied HU compound concentration and 5 μg membrane. Incubations were continued for 60 minutes at 30° C. in a shaking water bath. Assays were terminated by addition of 2 ml ice cold wash buffer (50 mM Tris-HCl, pH 7.5 and 5 mM MgCl2) and filtration through pre-soaked GF/C filters (Whatman), followed by two further washes. adioactivity was determined as described for competition binding assays.
Data was analyzed using the Prism 4.02 programme (GraphPad Software, San Deigo, Calif., USA). IC50 and EC50 values, as determined from sigmoidal curves, were generated from drug concentrations plotted in log scale. […] It is possible to display data as an average, plus or minus the standard error of the mean in log form, however, this is not easily interpreted or compared to other values. It was therefore elected to calculate the 95% confidence interval for the mean value in log form and then convert the lower limit, mean and upper limit into the molar (linear) scale. […] Two-tailed t-tests for statistical analysis between enantiomeric pairs of compounds were performed for CB2 Ki values. The Pearson value, an indication of linearity, was determined for Ki and IC50 or EC50 results obtained for CB2 receptors in binding, cAMP or GTPγS experiments, respectively.
(GTPγS resists hydrolysis and so accumulates on activated G proteins.)

The mark [6] stands for this setting: CHO-CB1 cellular membranes, 2.5 nM [3H]-CP 55,940, read-out: Competition Binding Assay CB1 Receptor Ki.
The mark [7] stands for this setting: whole cells expressing CB1, 50 μM forskolin, read-out: cAMP Assay CB1 Receptor IC50.
Setting [8] is: CHO, read-out: cAMP Assay CB2 Receptor Emax.
Setting [9] is: read-out: cAMP Assay CB2 Receptor IC50.
The mark [10] stands for this setting: CHO-CB2 cellular membranes, 2.5 nM [3H]-CP 55,940.
[11] abbreviates: CHO; read-out: cAMP Assay CB2 Receptor Emax.
Setting [12] is: whole cells expressing CB2, 50 μM forskolin; read-out: cAMP Assay CB2 Receptor IC50.
The mark [13] stands for this setting: human CB2 CHO-K1 membranes, mean (95% confidence interval), n = 5.

T2 sequence (P21554 whole entry): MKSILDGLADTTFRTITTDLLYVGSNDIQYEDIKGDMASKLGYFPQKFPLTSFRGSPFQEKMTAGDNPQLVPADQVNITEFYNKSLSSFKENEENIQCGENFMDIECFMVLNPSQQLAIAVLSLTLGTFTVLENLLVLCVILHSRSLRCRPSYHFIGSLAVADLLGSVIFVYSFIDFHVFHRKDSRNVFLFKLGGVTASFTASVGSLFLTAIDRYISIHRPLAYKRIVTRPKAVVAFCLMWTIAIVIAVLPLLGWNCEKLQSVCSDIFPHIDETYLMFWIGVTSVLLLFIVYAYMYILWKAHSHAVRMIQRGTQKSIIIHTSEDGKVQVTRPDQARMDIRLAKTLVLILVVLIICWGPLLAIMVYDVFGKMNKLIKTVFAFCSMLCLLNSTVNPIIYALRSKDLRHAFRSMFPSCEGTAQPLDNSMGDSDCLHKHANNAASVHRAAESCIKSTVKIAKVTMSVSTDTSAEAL

On to `CCCCCCC(C)(C)c1cc(OC)c(C2C(O)[C@]3(C)CC[C@H]2C3(C)C)c(OC)c1` (stereo partly drawn) [HU-928, (1R,4R)-3-(2,6-dimethoxy-4-(2-methyloctan-2-yl)phenyl)-1,7,7-trimethylbicyclo[2.2.1]heptan-2-ol], for which the Ki is 0.23 µM on human CB2 receptor [1] and greater than 50 µM at human CB1 receptor [2] (setting [6]). The IC50 was greater than 50 µM at human CB1 receptor [3] (setting [7]) and 0.925 µM at human CB2 receptor [4] (setting [9]). The Emax was 101 ± 11% on human CB2 receptor [4] (setting [8]) and 95 ± 5% on human CB2 receptor [5]. Further, at human CB2 receptor [5], the EC50 was 0.577 µM.

As for `CCCCCCC(C)(C)c1cc(OC)c(C2=C[C@@H]3CC[C@@]2(C(=O)OC)C3(C)C)c(OC)c1` [HU-911, (1R,4S)-methyl-2-(2,6-dimethoxy-4-(2-methyloctan-2-yl)phenyl)-7,7-dimethylbicyclo[2.2.1]hept-2-ene-1-carboxylate], the Ki on human CB2 receptor [1] (setting [10]) is 0.0846 µM; at human CB1 receptor [2] (setting [6]) it was greater than 50 µM. Moreover, the values for the IC50 on human CB1 receptor [3] (setting [7]) and at human CB2 receptor [4] (setting [12]) were greater than 50 µM and 0.385 µM, respectively. The maximal effect (Emax) was 86 ± 9% on human CB2 receptor [4] (setting [11]) and 94 ± 4% on human CB2 receptor [5]. Also, a half-maximal response at human CB2 receptor [5] (setting [13]) (EC50) required 0.126 µM.

For `CCCCCCC(C)(C)c1cc(OC)c(C2=C[C@@H]3CC[C@@]2(CO)C3(C)C)c(OC)c1` [HU-909, (1R,4S)-(2-(2,6-dimethoxy-4-(2-methyloctan-2-yl)phenyl)-7,7-dimethylbicyclo[2.2.1]hept-2-en-1-yl)methanol], the figures for the Ki on human CB2 receptor [1] and on human CB1 receptor [2] (setting [6]) were 0.0568 µM and 11.7 µM, respectively. Also, the IC50 on human CB1 receptor [3] (setting [7]) was greater than 50 µM; at human CB2 receptor [4] (setting [9]), 0.425 µM. In addition, the figures for the Emax at human CB2 receptor [4] (setting [8]) and at human CB2 receptor [5] were 95 ± 6% and 76 ± 7%, respectively. This compound came in with an EC50 on human CB2 receptor [5] of 0.136 µM.

Take `CCCCCCC(C)(C)c1cc(OC)c(C2=C[C@@H]3CC[C@@]2(C(=O)O)C3(C)C)c(OC)c1` [HU-913, (1R,4S)-2-(2,6-dimethoxy-4-(2-methyloctan-2-yl)phenyl)-7,7-dimethylbicyclo[2.2.1]hept-2-ene-1-carboxylic acid]: the Ki is 0.0815 µM on human CB2 receptor [1] and greater than 50 µM at human CB1 receptor [2] (setting [6]). In addition, the IC50 is greater than 50 µM on human CB1 receptor [3] (setting [7]) and 0.33 µM at human CB2 receptor [4] (setting [9]). Moreover, the Emax came out at 101 ± 11% on human CB2 receptor [4] (setting [8]) and 98 ± 3% on human CB2 receptor [5]. Moreover, on human CB2 receptor [5], a half-maximal response (EC50) required 0.344 µM.

For the compound `CCCCCCC(C)(C)c1cc(OC)c([C@@H]2C=C(CO)[C@@H]3C[C@H]2C3(C)C)c(OC)c1` [HU-308, [(1R,2R,5R)-2-[2,6-dimethoxy-4-(2-methyloctan-2-yl)phenyl]-7,7-dimethyl-4-bicyclo[3.1.1]hept-3-enyl]methanol, reference compound], the Ki on human CB1 receptor [2] is greater than 50 µM. The same compound gave an IC50 on human CB1 receptor [3] greater than 50 µM. In addition, the Emax on human CB2 receptor [4] (setting [8]) and at human CB2 receptor [5] was 100% each time.

Consider `CCCCCCC(C)(C)c1cc(OC)c(C2C(=O)[C@]3(C)CC[C@H]2C3(C)C)c(OC)c1` (stereo partly drawn) [HU-926, (1R,4R)-3-(2,6-dimethoxy-4-(2-methyloctan-2-yl)phenyl)-1,7,7-trimethylbicyclo[2.2.1]heptan-2-one], for which the Ki at human CB2 receptor [1] (setting [10]) was 0.106 µM; at human CB1 receptor [2] (setting [6]), greater than 50 µM. Moreover, the IC50 on human CB1 receptor [3] (setting [7]) is greater than 50 µM; at human CB2 receptor [4] (setting [12]) it was 0.321 µM. The Emax on human CB2 receptor [4] (setting [11]) amounted to 100 ± 13%; on human CB2 receptor [5] it was 51 ± 6%. Moreover, the EC50 on human CB2 receptor [5] (setting [13]) is 0.185 µM.
